# Test results: patent US20080176827A1, “New Pyridine Analogues VII 543” (ASTRAZENECA AB, priority 2007, published 2008)
# Target: T1, P2Y12 receptor (Homo sapiens, UniProt Q9H244)
# T1 construct: expressed in transfected cells; host or cells: CHO cells (membranes)
# Assay: Functional inhibition of 2-Me-S-ADP induced P2Y12 signalling (35S-GTPγS binding, membranes from P2Y12 transfected CHO-cells)
# Format: biochemical
# Conditions: EC80 agonist, CHO-cell membranes, read-out: IC50
# Protocol: Functional inhibition of-the P2Y12 receptor can be measured by in vitro assays using cell membranes from P2Y12 transfected CHO-cells, the methodology is indicated below. […] The reaction was allowed to proceed at 30° C. for 45 min. Samples were then transferred on to GF/B filters using a cell harvester and washed with wash buffer (50 mM Tris (pH 7.4), 5 mM MgCl2, 50 mM NaCl). Filters were then covered with scintilant and counted for the amount of ^35S-GTPγS retained by the filter. Maximum activity was that determined in the presence of the agonist and minimum activity in the absence of the agonist following subtraction of the value determined for non-specific activity. The effect of compounds at various concentrations was plotted according to the equation […]))) and IC50 estimated where A is the bottom plateau of the curve i.e. the final minimum y value B is the top of the plateau of the curve i.e. the final maximum y value C is the x value at the middle of the curve. […] Y is the original known y values. […] The reaction was allowed to proceed at 30° C. for 45 min. Samples were then transferred on to GF/B filters using a cell harvester and washed with wash buffer (50 mM Tris (pH 7.4), 5 mM MgCl2, 50 mM NaCl). Filters were then covered with scintilant and counted for the amount of ^35S-GTPγS retained by the filter. Maximum activity was that determined in the presence of the agonist and minimum activity in the absence of the agonist following subtraction of the value determined for non-specific activity. The effect of compounds at various concentrations was plotted according to the equation […]))) and IC50 estimated where A is the bottom plateau of the curve i.e. the final minimum y value B is the top of the plateau of the curve i.e. the final maximum y value C is the x value at the middle of the curve. […] Y is the original known y values.
# T1 sequence (Q9H244 whole entry): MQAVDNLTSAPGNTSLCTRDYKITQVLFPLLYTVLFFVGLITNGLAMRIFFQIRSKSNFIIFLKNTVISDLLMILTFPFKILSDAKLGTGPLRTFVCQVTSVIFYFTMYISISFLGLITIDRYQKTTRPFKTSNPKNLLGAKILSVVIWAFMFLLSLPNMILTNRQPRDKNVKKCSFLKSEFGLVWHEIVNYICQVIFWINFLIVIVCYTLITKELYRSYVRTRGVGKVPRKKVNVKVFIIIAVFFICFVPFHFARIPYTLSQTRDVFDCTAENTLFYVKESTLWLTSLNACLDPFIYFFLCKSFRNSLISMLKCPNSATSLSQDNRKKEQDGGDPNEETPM
row,IC50 [µM],Compound
1,0.07,"CCOC(=O)c1cc(C#N)c(N2CCC(C(=O)NS(=O)(=O)Cc3ccccc3)C(C)C2)nc1C (stereo not shown) [Example 5, Ethyl 6-{4-[(benzylsulfonyl)carbamoyl]-3-methylpiperidin-1-yl}-5-cyano-2-methylnicotinate]"

# Same assay, conditions: EC80 agonist, CHO-cell membranes, value given in each example, read-out: GTPγS(IC50 μM)
row,IC50 [µM],Compound
1,0.143,"CCOC(=O)c1cc(C#N)c(N2CCC(CC(=O)NS(=O)(=O)Cc3ccccc3)C2)nc1C (stereo not shown) [Example 1, Ethyl 6-(3-{2-[(benzylsulfonyl)amino]-2-oxoethyl}pyrrolidin-1-yl)-5-cyano-2-methylnicotinate]"
2,0.12,"CCOC(=O)c1cc(C#N)c(N2CCC(CC(=O)NS(=O)(=O)CCc3ccccc3)C2)nc1C (stereo not shown) [Example 2, Ethyl 5-cyano-2-methyl-6-[3-(2-oxo-2-{[(2-phenylethyl)sulfonyl]amino}ethyl)pyrrolidin-1-yl]nicotinate]"
3,0.024,"Cc1nc(N2CCC(C(=O)NS(=O)(=O)Cc3ccc(F)cc3)CC2)c(C#N)cc1C(=O)OCC(F)(F)F [Example 3, 2,2,2-Trifluoroethyl 5-cyano-6-(4-{[(4-fluorobenzyl)sulfonyl]carbamoyl}piperidin-1-yl)-2-methylnicotinate]"
4,0.018,"CCOC(=O)c1cc(C#N)c(N2CC(C(=O)NS(=O)(=O)Cc3cc(C)ccc3F)C2)nc1C [Example 4, Ethyl 5-cyano-6-(3-{[(2-fluoro-5-methylbenzyl)sulfonyl]carbamoyl}azetidin-1-yl)-2-methylnicotinate]"
5,0.067,"CCOC(=O)c1cc(C#N)c(N2CCC(C(=O)NS(=O)(=O)Cc3ccccc3)C(C)C2)nc1C (stereo not shown) [Example 5, Ethyl 6-{4-[(benzylsulfonyl)carbamoyl]-3-methylpiperidin-1-yl}-5-cyano-2-methylnicotinate]"
6,0.044,"CCOC(=O)c1cc(C#N)c(N2CCC(C(=O)NS(=O)(=O)Cc3ccccc3)CC2)nc1NC [Example 6, Ethyl 6-{4-[(benzylsulfonyl)carbamoyl]piperidin-1-yl}-5-cyano-2-(methylamino)nicotinate]"
7,0.035,"CCOC(=O)c1cc(C#N)c(N2CCC(C(=O)NS(=O)(=O)Cc3cc(C)ccc3F)CC2)nc1C [Example 7, Ethyl 5-cyano-6-(4-{[(2-fluoro-5-methylbenzyl)sulfonyl]carbamoyl}piperidin-1-yl)-2-methylnicotinate]"
8,0.074,"CCOC(=O)c1cc(C#N)c(N2CCC(C(=O)NS(=O)(=O)Cc3cccc(OC)c3)CC2)nc1C [Example 8, Ethyl 5-cyano-6-(4-{[(3-methoxybenzyl)sulfonyl]carbamoyl}piperidin-1-yl)-2-methylnicotinate]"
9,0.046,"CCOC(=O)c1cc(C#N)c(N2CC(C(=O)NS(=O)(=O)Cc3c(F)cccc3F)C2)nc1CC [Example 9, Ethyl 5-cyano-6-(3-{[(2,6-difluorobenzyl)sulfonyl]carbamoyl}azetidin-1-yl)-2-ethylnicotinate]"
10,0.064,"CCOC(=O)c1cc(C#N)c(N2CC(C(=O)NS(=O)(=O)Cc3ccc(F)c(C)c3)C2)nc1CC [Example 10, Ethyl 5-cyano-2-ethyl-6-(3-{[(4-fluoro-3-methylbenzyl)sulfonyl]carbamoyl}azetidin-1-yl)nicotinate]"
11,0.036,"CCOC(=O)c1cc(C#N)c(N2CC(C(=O)NS(=O)(=O)Cc3ccc(F)cc3Cl)C2)nc1CC [Example 11, Ethyl 6-(3-{[(2-chloro-4-fluorobenzyl)sulfonyl]carbamoyl}azetidin-1-yl)-5-cyano-2-ethylnicotinate]"
12,0.49,"CCOC(=O)c1cc(C#N)c(N2CCC(C(=O)NS(=O)(=O)Cc3cc(F)ccc3C)CC2)nc1C [Example 12, Ethyl 5-cyano-6-(4-{[(5-fluoro-2-methylbenzyl)sulfonyl]carbamoyl}piperidin-1-yl)-2-methylnicotinate]"
13,0.071,"CCOC(=O)c1cc(C#N)c(N2CCC(C(=O)NS(=O)(=O)Cc3c(F)ccc(F)c3F)CC2)nc1C [Example 13, ethyl 5-cyano-2-methyl-6-(4-{[(2,3,6-trifluorobenzyl)sulfonyl]carbamoyl}piperidin-1-yl)nicotinate]"
14,0.016,"CCOC(=O)c1cc(C#N)c(N2CCC(C(=O)NS(=O)(=O)Cc3ccc(F)cc3F)CC2)nc1C [Example 14, Ethyl 5-cyano-6-(4-{[(2,4-difluorobenzyl)sulfonyl]carbamoyl}piperidin-1-yl)-2-methylnicotinate]"
15,0.048,"CCOC(=O)c1cc(C#N)c(N2CCC(C(=O)NS(=O)(=O)Cc3c(F)cccc3F)CC2)nc1CC [Example 15, Ethyl 5-cyano-6-(4-{[(2,6-difluorobenzyl)sulfonyl]carbamoyl}piperidin-1-yl)-2-ethylnicotinate]"
16,0.211,"CCOC(=O)c1cc(C#N)c(N2CCC(C(=O)NS(=O)(=O)Cc3ccc(F)cc3Cl)CC2)nc1CC [Example 16, Ethyl 6-(4-{[(2-chloro-4-fluorobenzyl)sulfonyl]carbamoyl}piperidin-1-yl)-5-cyano-2-ethylnicotinate]"
17,0.097,"CCOC(=O)c1cc(C#N)c(N2CCC(C(=O)NS(=O)(=O)Cc3c(F)ccc(F)c3F)CC2)nc1CC [Example 17, Ethyl 5-cyano-2-ethyl-6-(4-{[(2,3,6-trifluorobenzyl)sulfonyl]carbamoyl}piperidin-1-yl)nicotinate]"
18,0.02,"CCOC(=O)c1cc(C#N)c(N2CCC(C(=O)NS(=O)(=O)Cc3ccc(F)cc3F)CC2)nc1CC [Example 18, Ethyl 5-cyano-6-(4-{[(2,4-difluorobenzyl)sulfonyl]carbamoyl}piperidin-1-yl)-2-ethylnicotinate]"
19,0.035,"CCOC(=O)c1cc(C#N)c(N2CC(C(=O)NS(=O)(=O)Cc3ccc(F)cc3F)C2)nc1C [Example 20, Ethyl 5-cyano-6-(3-{[(2,4-difluorobenzyl)sulfonyl]carbamoyl}azetidin-1-yl)-2-methylnicotinate]"
20,0.03,"CCOC(=O)c1cc(C#N)c(N2CC(C(=O)NS(=O)(=O)Cc3ccc(F)cc3F)C2)nc1CC [Example 21, Ethyl 5-cyano-6-(3-{[(2,4-difluorobenzyl)sulfonyl]carbamoyl}azetidin-1-yl)-2-ethylnicotinate]"
21,0.041,"CCOC(=O)c1cc(C#N)c(N2CC(C(=O)NS(=O)(=O)Cc3ccc(F)cc3)C2)nc1CC [Example 22, Ethyl 5-cyano-2-ethyl-6-(3-{[(4-fluorobenzyl)sulfonyl]carbamoyl}azetidin-1-yl)nicotinate]"
22,0.022,"CCOC(=O)c1cc(C#N)c(N2CC(C(=O)NS(=O)(=O)Cc3ccc(Cl)cc3)C2)nc1CC [Example 23, Ethyl 6-(3-{[(4-chlorobenzyl)sulfonyl]carbamoyl}azetidin-1-yl)-5-cyano-2-ethylnicotinate]"
23,0.036,"CCOC(=O)c1cc(C#N)c(N2CCC(C(=O)NS(=O)(=O)Cc3ccc(F)cc3)CC2)nc1CC [Example 24, Ethyl 5-cyano-2-ethyl-6-(4-{[(4-fluorobenzyl)sulfonyl]carbamoyl}piperidin-1-yl)nicotinate]"
24,0.04,"CCOC(=O)c1cc(C#N)c(N2CCC(C(=O)NS(=O)(=O)Cc3ccc(Cl)cc3)CC2)nc1CC [Example 25, Ethyl 6-(4-{[(4-chlorobenzyl)sulfonyl]carbamoyl}piperidin-1-yl)-5-cyano-2-ethylnicotinate]"
25,0.035,"CCOC(=O)c1cc(C#N)c(N2CC(C(=O)NS(=O)(=O)Cc3ccccc3F)C2)nc1C [Example 26, Ethyl 5-cyano-6-(3-{[(2-fluorobenzyl)sulfonyl]carbamoyl}azetidin-1-yl)-2-methylnicotinate]"
26,0.026,"CCOC(=O)c1cc(C#N)c(N2CCC(C(=O)NS(=O)(=O)Cc3ccccc3F)CC2)nc1C [Example 27, Ethyl 5-cyano-6-(4-{[(2-fluorobenzyl)sulfonyl]carbamoyl}piperidin-1-yl)-2-methylnicotinate]"
27,0.442,"CCOC(=O)c1cc(C#N)c(N2CCC(C(=O)NS(=O)(=O)Cc3ccccc3)C(CCC(=O)OCc3ccccc3)C2)nc1C (stereo not shown) [Example 28, Ethyl 6-{3-[3-(benzyloxy)-3-oxopropyl]-4-[(benzylsulfonyl)carbamoyl]piperidin-1-yl}-5-cyano-2-methylnicotinate]"
28,0.382,"CCOC(=O)c1cc(C#N)c(N2CCC(C(=O)NS(=O)(=O)Cc3ccc(F)cc3F)C(CCC(=O)OCc3ccccc3)C2)nc1C (stereo not shown) [Example 29, Ethyl 6-(3-[3-(benzyloxy)-3-oxopropyl]-4-{[(2,4-difluorobenzyl)sulfonyl]carbamoyl}piperidin-1-yl)-5-cyano-2-methylnicotinate]"
29,0.057,"CCOC(=O)c1cc(C#N)c(N2CCC(C(=O)NS(=O)(=O)Cc3ccccc3)C(CCC(=O)O)C2)nc1C (stereo not shown) [Example 30, 3-{4-[(Benzylsulfonyl)carbamoyl]-1-[3-cyano-5-(ethoxycarbonyl)-6-methylpyridin-2-yl]piperidin-3-yl}propanoic Acid]"

row,Compound,IC50 [µM]
1,Ethyl 6-(4-{[(4-chloro-2-fluorobenzyl)sulfonyl]carbamoyl}piperidin-1-yl)-5-cyano-2-ethylnicotinate [Example 19],0.01
